Experimental data reported in patent publication US20230013304A1, “N2-ARYLMETHYL-4-HALOALKYL-PYRIDAZIN-3-ONE CFTR MODULATORS FOR THE TREATMENT OF CYSTIC FIBROSIS” (UNIVERSITE DE REIMS CHAMPAGNE-ARDENNE, priority 2019, published 2023).

System: CFTR channel
Assay: CFTR-dependent halide transport, YFP-H148Q/I152L fluorescent probe (Premo Halide Sensor kit) in osteoblasts
Type: cell-based
Conditions: for restoration of the CFTR channel activity: on average, compared with reference substances (Ivacaftor, Lumacaftor, Orkambi)
Method: To evaluate the action of the compounds according to the invention on the restoration of CFTR activity, said compounds were tested in vitro using a suitable Premo Halid Sensor kit (Invitrogen).
The transport of CFTR-dependant chloride ions is thus first evaluated in osteoblasts with the use of a fluorescent probe (halide-sensitive yellow fluorescent protein (YFP)-H148Q/I152 L protein (Life Technologies, Saint Aubin, France)) (FIG. 1).
48 h after transfection of the probe into the cell, CFTR channel activity is stimulated using a solution composed of forskolin, 3-isobutyl-1-methylxanthine and apigenine (each component in a concentration of 10 μM). An iodine solution (140 mM) was then added and the fluorescence was recorded using a plate reader (400 ms/point; Ft) over a period of 60 s (baseline; F0). The decrease in the Ft/F0 ratio represents the restoration of chloride activity of the CFTR channel.
For quantitative analyses, the gradients of the signals obtained are processed in non-linear regressions and correlated to the level of conductance of chloride ions.

| Compound | decrease in fluorescence (Ft/F0) in the presence of the inhibitor (CFTRinh-172 10 μM, untreated osteoblasts, control) | restoration of CFTR channel activity compared with Ivacaftor and Lumacaftor (osteoblasts, FIG. 1) | restoration of CFTR channel activity compared with Orkambi (osteoblasts, FIG. 1) | restoration of the CFTR channel activity (osteoblasts, FIG. 1) |
| --- | --- | --- | --- | --- |
| CFTRinh-172 [reference compound] | no decrease in fluorescence was observed |  |  |  |
| COc1ccc(-c2cc(C(F)(F)F)c(=O)n(Cc3ccccc3)n2)cc1OC [Compound 1, 2-benzyl-6-(3,4-dimethoxyphenyl)-4-(trifluoromethyl)pyridazin-3(2H)-one] |  | better restoration of CFTR channel activity than those obtained with Ivacaftor and Lumacaftor | restoration of CFTR channel activity similar to that obtained with Orkambi | 150% |
| COc1ccc(Cn2nc(-c3ccc(OC(F)F)c(OC)c3)cc(C(F)(F)F)c2=O)cc1 [Compound 4, 6-(4-(difluoromethoxy)-3-methoxyphenyl)-2-(4-methoxybenzyl)-4-(trifluoromethyl)pyridazin-3(2H)-one] |  | better restoration of CFTR channel activity than those obtained with Ivacaftor and Lumacaftor |  | 150% |
